Data taken from patent US5157019A, “Serine protease inhibitors” (Monsanto Company, priority 1991, dated 1992).
Like-named read-outs stand apart in the source and are kept apart here. Ends that are not written are not given here.

Legend:
Factor Xa = Factor Xa (Homo sapiens, UniProt P00742); assay: Coagulation inhibition assay, Factor Xa (clotting of Factor X deficient plasma); type: biochemical; conditions: 40 μM peptide
Method: Inhibitory activity of subject peptides toward thrombin and Factor Xa were done in the following manner.
Mix 50 μL Factor Xa (0.1 μg/ml) in TBSA with 100 μL Peptide in TBSA and 50 μL CaCl2 25 mM and incubate for 1 minute at 37° C. Add 50 μL Factor X deficient plasma/RBC (10/1) and measure clotting end point (in seconds) in a Fibrometer (BBL)
TBSA=Tris-Saline with Bovine Serum Albumin: 0.1M NaCl,0.05 M Tris-HCl, 1 mg/ml BSA, 0.1% NaN3
Factor X deficient plasma: George King Biomedical (GK 1004) RBC=Rabbit Brain Cephalin: Sigma Chemical Co. St. Louis, Mo.

C1s = target: T1, C1s (Homo sapiens, UniProt P09871); assay: C1s assay by inhibition of fluid phase C4 activation; type: biochemical
T1 construct: prepared from pooled human plasma; from tissue; host or cells: pooled human plasma
T1 sequence (P09871 16-688): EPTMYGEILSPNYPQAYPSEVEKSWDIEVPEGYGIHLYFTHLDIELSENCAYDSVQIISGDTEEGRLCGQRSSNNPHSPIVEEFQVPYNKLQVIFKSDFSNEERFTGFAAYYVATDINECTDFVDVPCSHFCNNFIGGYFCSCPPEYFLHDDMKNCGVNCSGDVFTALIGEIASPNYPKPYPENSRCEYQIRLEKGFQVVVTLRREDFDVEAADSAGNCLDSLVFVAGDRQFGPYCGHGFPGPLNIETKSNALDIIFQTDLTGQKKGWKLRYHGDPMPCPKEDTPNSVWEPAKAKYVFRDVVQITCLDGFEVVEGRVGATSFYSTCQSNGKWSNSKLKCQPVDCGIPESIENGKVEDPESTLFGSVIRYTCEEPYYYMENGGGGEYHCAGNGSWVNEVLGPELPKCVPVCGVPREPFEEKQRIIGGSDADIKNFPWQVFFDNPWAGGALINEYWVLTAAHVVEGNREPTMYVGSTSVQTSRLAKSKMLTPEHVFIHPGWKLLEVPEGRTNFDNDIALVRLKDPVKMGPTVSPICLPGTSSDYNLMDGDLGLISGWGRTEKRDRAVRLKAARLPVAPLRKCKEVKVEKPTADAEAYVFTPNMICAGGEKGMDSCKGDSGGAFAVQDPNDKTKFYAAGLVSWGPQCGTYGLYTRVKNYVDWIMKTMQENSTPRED
Method: Highly purified C3, C4, Factor D, Factor B, and C1s were prepared from pooled human plasma. Factors B and C4 were radiolabeled by periodate oxidation of sialic acid residues, followed by reduction with tritiated sodium borohydride. In a representative experiment, a solution of 1.2 mg of factor B in 1.8 ml of PBS was treated with 70 μl of 0.1M NaIO4. After 10 min incubation on ice, excess reagent was removed by filtration over "SEPHADEX®" which is a matrix for gel chromatography (1.0 cm×20 cm). To the protein pool was added 60 μl of NaB[^3 H]4 solution and incubated for 30 min on ice. Labeled protein was separated from excess reagent by desalting or dialysis. Human C4 was radiolabeled in the same manner. Radiolabeled proteins were stored at -70° C. in PBS. The specific radioactivity of ^3 H factor B was about 10,000 CPM/μg and that of ^3 H-C4 was 5,000 CPM/μg.
The cleavage of C4 was studied by incubating 10 μg of tritiated C4 with 3-5 ng of C1s at 37° C. for 30 min in 100 μl of PBS (pH 7.10) containing different concentrations of inhibitor. The reaction was stopped by the addition of 2-mercaptoethanol. The extent of cleavage was analyzed by SDS-polyacrylamide gel electrophoresis. The stained bands corresponding to C4α and C4α' were cut out and sliced. The radioactivity of the fragments was measured by liquid scintillation counting. The percent cleavage of the reaction was calculated as follows: [formula]
Electrophoresis was carried out under reducing conditions in the Laemmli system using slab gel of 8% polyacrylamide. The gels were stained and destained (Fairbanks et al. Biochemistry (1971) 10:2606).
The percent inhibition of the reaction was calculated according to the following relationship: [formula]
A: % cleavage without inhibitor
B: % cleavage with inhibitor
The concentration inducing 50% inhibition was obtained by plotting the percent inhibition on a probability graph (National Blank Book Co., No. 12-083) on the ordinate and the log of the inhibitor concentration on the abscissa. From this graph, a 50% inhibition concentration IC50 was obtained and this value was employed to express the activity.

Thrombin = Thrombin (Homo sapiens, UniProt P00734); assay: Coagulation inhibition assay, thrombin (fibrinogen clotting end point); type: biochemical; conditions: 40 μM peptide
Method: Inhibitory activity of subject peptides toward thrombin and Factor Xa were done in the following manner. Mix 100 μL Thrombin (3.125 units/ml, 1.125 μg/ml) in TAB with […] Peptide in TAB and incubate for 1 minute at 37° C. Add 50 μL Fibrinogen (2 mg/ml)and measure clotting end point (in seconds) in a Fibrometer (BBL) TAB=Thrombin Assay Buffer: 0.15M NaCl, 6.6 gm/L PEG-6000, 0.01M Imidazole, 0.01 CaCl2, pH 7.4

complement activation = assay: Reverse passive arthus reaction (RPAR), histopathology of injection sites; type: in vivo, guinea pigs; set-up: key: 0 indicating no acute inflamation; 1 indication minimal acute inflammation; 2 indicating mild acute inflammation; 3 indicating moderate acute inflammation; conditions: guinea pig, intradermal injection of peptide without antibody
Method: These exemplary peptide inhibitors (peptides 13, 7 and 27) were assayed for in vivo activity in inhibiting complement activation using the reverse passive arthus reaction (RPAR). RPAR is a model of complement-mediated damage due to activation via interaction with antigen/antibody complexes. Female guinea pigs (400 gm) were pretreated intracardially with bovine serum albumin and Evans blue dye. Ninety minutes later they received bilateral intradermal injections of peptide inhibitor or control material in the thoracolumbar region. Injection sites were excised postmortem and fixed in 10% buffered formalin for pathological evaluation. The peptides were administered to obtain an initial level of […] in the circulatory system.
The histopathological results are outlined below. The degree of inflammation was scored as follows: 0 indicating no acute inflamation; 1 indication minimal acute inflammation; 2 indicating mild acute inflammation; and 3 indicating moderate acute inflammation.

Plasma Kallikrein = target: T2, Plasma Kallikrein (Homo sapiens, UniProt P03952); assay: Plasma kallikrein assay (Chromozym PK); type: biochemical; conditions: for Kallikrein % inhibition: 50 μM peptide; for inhibition at 100 µM: 100 μM peptide
T2 construct: purchased Sigma K-3126
Method: Buffer 150 mM Tris·HCl, pH 8.0
Substrate Benzyl-Pro-Phe-Arg-pNa (Chromozym PK, Boeringer Mannheim), 10 mM in deionized water.
Enzyme Plasma Kallikrein (Sigma, K-3126), 0.0312 μ/ml. Used undiluted.
Inhibitor Dissolved at desired concentrations in deionized water or DMSO plus deionized water depending on solubility.
4. Incubate mixture for 5 min at 25° C.
6. Measure rate spectrophotometrically at […] at 25° C.
2. Add appropriate volume of peptide solution
3. Add adjusted volume of buffer compensating for volume of peptide solution.
4. Add an adjusted volume of DMSO to maintain a final amount of 25 μl in the assay
5. Incubate mixture for 5 min at 25° C.
7. Measure rate spectrophotometrically at […] at 25° C.
Inhibition (%) is calculated in the same manner as in previous assays.

[1] = Tables VI and VIII, % 50, read-out: C1s, μM concentration listed for 50 % inhibition

Chain of Factor Xa (P00742 235-488 limits assumed): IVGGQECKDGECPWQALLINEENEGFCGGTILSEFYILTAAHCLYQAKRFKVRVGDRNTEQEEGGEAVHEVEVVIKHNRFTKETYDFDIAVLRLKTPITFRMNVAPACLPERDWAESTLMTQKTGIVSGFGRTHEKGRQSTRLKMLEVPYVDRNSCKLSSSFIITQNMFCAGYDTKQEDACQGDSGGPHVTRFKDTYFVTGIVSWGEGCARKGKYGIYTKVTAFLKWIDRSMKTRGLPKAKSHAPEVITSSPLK
Chain of Factor Xa (P00742 41-179 partner limits assumed): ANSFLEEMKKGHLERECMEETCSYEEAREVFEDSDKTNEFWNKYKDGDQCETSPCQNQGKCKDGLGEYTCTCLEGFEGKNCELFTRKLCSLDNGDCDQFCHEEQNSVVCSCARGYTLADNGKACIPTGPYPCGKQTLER
T2 sequence (P03952 20-638): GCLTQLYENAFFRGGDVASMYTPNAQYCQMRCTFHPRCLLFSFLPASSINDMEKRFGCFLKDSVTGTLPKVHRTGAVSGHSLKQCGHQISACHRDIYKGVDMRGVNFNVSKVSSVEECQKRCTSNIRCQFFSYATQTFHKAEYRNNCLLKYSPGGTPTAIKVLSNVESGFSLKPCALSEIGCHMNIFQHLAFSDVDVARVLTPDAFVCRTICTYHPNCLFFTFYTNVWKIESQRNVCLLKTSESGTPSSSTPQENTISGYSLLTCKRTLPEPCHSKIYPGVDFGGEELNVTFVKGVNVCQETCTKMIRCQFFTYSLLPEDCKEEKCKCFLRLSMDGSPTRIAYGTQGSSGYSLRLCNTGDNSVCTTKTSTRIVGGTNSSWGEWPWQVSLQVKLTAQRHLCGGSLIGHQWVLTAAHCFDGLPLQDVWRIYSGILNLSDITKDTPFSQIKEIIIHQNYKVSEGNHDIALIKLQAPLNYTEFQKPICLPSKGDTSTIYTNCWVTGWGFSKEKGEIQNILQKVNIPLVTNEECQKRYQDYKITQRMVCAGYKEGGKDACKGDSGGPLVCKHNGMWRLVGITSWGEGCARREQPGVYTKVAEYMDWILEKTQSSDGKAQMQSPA

| Compound | inhibition at 40 µM (Factor Xa) [%] | inhibition at 40 µM (Thrombin) [%] | IC50 (C1s; [1]) [µM] | also measured |
| --- | --- | --- | --- | --- |
| CC[C@H](C)[C@H](NC(=O)[C@H](CC(C)C)NC(=O)[C@H](Cc1ccccc1)NC(=O)[C@@H](NC(=O)[C@H](Cc1ccccc1)NC(=O)[C@@H]1CCCN1C(=O)[C@H](CCCCN)NC(=O)[C@H](CC(N)=O)NC(=O)[C@H](Cc1ccccc1)NC(=O)[C@H](CCCCN)NC(=O)[C@@H](NC(=O)[C@H](CCC(=O)O)NC(=O)[C@@H]1CCCN1C(=O)[C@@H]1CCCN1)C(C)C)C(C)C)C(=O)O [Peptide 1] | 31 | 0 | – | inhibition at 200 µM (C1s; 200 μM peptide): 0% |
| AGRSLNPNRVTFKANRPFLVFIREVPLNTIIFLGRVANP [Peptide 27] | – | 97 | – | Degree of inflammation, mean score, protease inhibitor only (complement activation): 1; IC50 (C1s; Table X, μM concentration at which protease was inhibited 50%, read-out: IC50 C1S): 12 µM |
| IVRFNRPFLLII [Peptide 3] | 73 | 50 | 55 | – |
| IVRFNRPFLLIIVPTDTQNIFFLSKVTNPSKPR [Peptide 22] | – | – | 6 | Kallikrein % inhibition (Plasma Kallikrein): 58%; Factor Xa % inhibition (Factor Xa): 97%; Thrombin inhibition (Thrombin): 90% |
| PNRVTFKANRPFLVFI [Peptide 2] | 51 | – | 34 | inhibition at 100 µM (Plasma Kallikrein): 21% |
| RVTFKANRPFLVFIREVPLNTIIFLGRVANP [Peptide 21] | 99 | 97 | 6 | inhibition at 100 µM (Plasma Kallikrein): 55% |
| VKFNKPFVFLLIEQNTKSPLFLGKVVNPTQK [Peptide 20] | – | – | 12 | Kallikrein % inhibition (Plasma Kallikrein): 0%; Factor Xa % inhibition (Factor Xa): 87%; Thrombin inhibition (Thrombin): 71% |
